Assay results reported in patent US5489591A, “S-triazine derivative and remedy for estrogen-dependent disease containing said derivative as effective component” (Zenyaku Kogyo Kabushiki Kaisha, priority 1992, dated 1996).

What was measured:
Aromatase = biological target: T1, Aromatase (Homo sapiens, UniProt P11511); experiment: Aromatase inhibitory activity (Pharmacological Test 1, human placenta microsome); assay type: biochemical; conditions: substrate 4-androsten-3,17-dione 1.0×10^-6 M, read-out: AI-IC50
T1 construct: human placenta microsome; from tissue; host or cells: human placenta microsomes
T1 sequence (P11511 1-503): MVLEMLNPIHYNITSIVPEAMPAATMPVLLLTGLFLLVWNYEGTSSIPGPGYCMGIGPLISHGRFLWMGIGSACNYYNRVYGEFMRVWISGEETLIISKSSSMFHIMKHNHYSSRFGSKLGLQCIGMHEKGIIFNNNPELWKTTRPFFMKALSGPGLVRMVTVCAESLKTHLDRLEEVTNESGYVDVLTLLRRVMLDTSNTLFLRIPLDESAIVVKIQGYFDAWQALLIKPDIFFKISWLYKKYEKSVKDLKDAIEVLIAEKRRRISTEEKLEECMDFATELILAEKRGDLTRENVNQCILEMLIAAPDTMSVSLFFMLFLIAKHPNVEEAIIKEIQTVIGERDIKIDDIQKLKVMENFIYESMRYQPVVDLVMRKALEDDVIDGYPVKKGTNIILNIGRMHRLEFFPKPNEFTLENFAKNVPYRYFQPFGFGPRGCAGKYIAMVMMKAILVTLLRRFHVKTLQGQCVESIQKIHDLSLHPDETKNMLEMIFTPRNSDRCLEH
Description: Aromatase inhibitory activity was determined according to the method of E. A. Thompson and P. K. Siiteri [J. Biol. Chem., 249, 5364-5372 (1974)]. The each compound to be tested was added to a reaction vial containing human placenta microsome, [1β,2 β-^3 H]4-androsten-3,17-dione (3.3 kBq/500 pmol) and NADPH. […] The obtained [^3 H]H2 O was measured by a liquid scintillation counter. The measured quantity of [3H]H20 was used to determine aromatase activity, and was compared with the activity when incubated without inhibitor to calculate inhibition ratio (%).

[1] = biological target: T2, cholesterol side-chain cleaving enzyme (Sus scrofa, UniProt P10612); experiment: Inhibitory activity against cholesterol side-chain cleaving enzyme (Pharmacological Test 2, porcine adrenal mitochondria); assay type: biochemical; conditions: substrate 5-cholesten-3β-ol 5.0×10^-6 M, read-out: SCC-IC50
T2 construct: porcine adrenal mitochondria; from tissue; host or cells: porcine adrenal mitochondria
T2 sequence (P10612 40-520): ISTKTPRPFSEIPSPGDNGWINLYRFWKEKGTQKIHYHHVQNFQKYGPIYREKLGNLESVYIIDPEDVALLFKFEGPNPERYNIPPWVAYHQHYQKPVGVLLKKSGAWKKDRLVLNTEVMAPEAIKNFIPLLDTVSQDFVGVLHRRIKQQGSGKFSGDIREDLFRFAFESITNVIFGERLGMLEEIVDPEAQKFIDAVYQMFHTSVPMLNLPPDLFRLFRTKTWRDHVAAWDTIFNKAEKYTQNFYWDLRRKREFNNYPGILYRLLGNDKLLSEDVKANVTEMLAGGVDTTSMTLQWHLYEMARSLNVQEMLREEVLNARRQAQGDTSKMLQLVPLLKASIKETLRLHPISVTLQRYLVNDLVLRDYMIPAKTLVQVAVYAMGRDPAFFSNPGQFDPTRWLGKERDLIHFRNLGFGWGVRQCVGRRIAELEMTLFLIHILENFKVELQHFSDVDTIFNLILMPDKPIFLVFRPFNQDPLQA
Description: Inhibitory activity against cholesterol side-chain cleaving enzyme was determined according to the method of M. Shikita and P. F. Hall [Proc. Nat. […] Briefly, the each compound to be tested was added to a reaction vial containing porcine adrenal mitochondria, [4-^14 C]5-cholesten-3β-ol (250 Bq/5 nmol) and NADPH. […] These were separated by extracting the reaction mixture with methylene-dichloride followed by purifying with thin-layer chromatography. Substrate (5-cholesten-3β-ol) and reaction product (3β-hydroxypregn-5-en-20-one) were respectively measured by a liquid scintillation counter. The measured quantity of 3β-hydroxypregn-5-en-20-one was used to determine cholesterol side-chain cleaving activity which was compared with the activity when incubated without inhibitor to calculate inhibition ratio (%).

[2] = Acute toxicity in ICR female mice, oral (Pharmacological Test 4); conditions: mouse, in vivo, suspended in distilled water with 1% hydroxypropylcellulose, observation for fourteen days
Description: The acute toxicity of the compounds of the present invention was examined by the following method.

| SMILES | IC50 (Aromatase) [nM] | IC50 [1] [nM] | LD50 at 336 h [2] [mg/kg] |
| --- | --- | --- | --- |
| N#CC1(c2ccccc2)CCN(c2nc(N3CCOCC3)nc(-n3ccnc3)n2)CC1 [Compound 13, 2-(4-Cyano-4-phenylpiperidino)-4-(1-imidazolyl)-6-morpholino-1,3,5-triazine] | 9 | 22000 | > 400 |
| CN(c1ccc(Cl)cc1)c1nc(N2CCOCC2)nc(-n2ccnc2)n1 [Compound 55, 2-[N-(4-Chlorophenyl)-N-methylamino]-4-(1-imidazolyl)-6-morpholino-1,3,5-triazine] | 7.7 | 26000 | > 400 |
| c1cn(-c2nc(N3CCOCC3)nc(N3CCSC3)n2)cn1 [Compound 7, 2-(1-Imidazolyl)-4-morpholino-6-(3-thiazolidinyl)-1,3,5-triazine] | 6.6 | 72000 | 300 to 400 |
| c1ccc(C2CCN(c3nc(N4CCOCC4)nc(-n4ccnc4)n3)CC2)cc1 [Compound 38, 2-(1-Imidazolyl)-4-morpholino-6-(4-phenylpiperidino)-1,3,5-triazine] | 38 | 23000 | > 400 |
| c1cn(-c2nc(N3CCOCC3)nc(N3CCSCC3)n2)cn1 [Compound 37, 2-(1-Imidazolyl)-4-morpholino-6-thiomorpholino-1,3,5-triazine] | 11 | > 100000 | > 400 |
| CC1CN1c1nc(N2CCOCC2)nc(-n2ccnc2)n1 (centres unmarked) [Compound 42, 2-(1-Imidazolyl)-4-(2-methyl-1-aziridinyl)-6-morpholino-1,3,5-triazine] | 57 | > 100000 | – |
| c1cn(-c2nc(N3CCOCC3)nc(N3CCOCC3)n2)cn1 [Compound 16, 2-(1-Imidazolyl)-4,6-dimorpholino-1,3,5-triazine] | 5.3 | > 100000 | 200 to 300 |

Further lines, with some results ahead:

| IC50 (Aromatase) [nM] | IC50 [1] [nM] | SMILES | LD50 at 336 h [2] [mg/kg] |
| --- | --- | --- | --- |
| 230 | 75000 | CN1CCN(c2nc(-n3ccnc3)nc(-n3ccnc3)n2)CC1 [Compound 29, 2,4-Bis (1-imidazolyl)-6-(4-methyl-1-piperazinyl)-1,3,5-triazine] | – |
| 11 | 19000 | CC1CC(C)CN(c2nc(N3CCOCC3)nc(-n3ccnc3)n2)C1 (centres unmarked) [Compound 11, 2-(1-Imidazolyl)-4-(3,5-dimethylpiperidino)-6-morpholino-1,3,5-triazine] | – |
| 220 | 65000 | c1ccc(N2CCN(c3nc(-n4ccnc4)nc(-n4ccnc4)n3)CC2)cc1 [Compound 30, 2,4-Bis(1-imidazolyl)-6-(4-phenyl-1-piperazinyl)-1,3,5-triazine] | – |
| 43 | > 100000 | c1cn(-c2nc(N3CCSCC3)nc(-n3ccnc3)n2)cn1 [Compound 31, 2,4-Bis (1-imidazolyl)-6-thiomorpholino-1,3,5-triazine] | – |
| 64 | > 100000 | c1cn(-c2nc(N3CCCCC3)nc(-n3ccnc3)n2)cn1 [Compound 27, 2,4-Bis(1-imidazolyl)-6-piperidino-1,3,5-triazine] | – |
| 31 | > 100000 | CC1CN(c2nc(N3CCOCC3)nc(-n3ccnc3)n2)CC(C)O1 (centres unmarked) [Compound 10, 2-(1-Imidazolyl)-4-(2,6-dimethylmorpholino)-6-morpholino-1,3,5-triazine] | – |
| 310 | > 100000 | c1cn(-c2nc(N3CCCC3)nc(N3CCCC3)n2)cn1 [Compound 17, 2-(1-Imidazolyl)-4,6-bis(1-pyrrolidinyl)-1,3,5-triazine] | – |
| 4300 | > 100000 | CC(C)c1nccn1-c1nc(N(C)C)nc(-n2ccnc2)n1 [Compound 6, 2-(1-Imidazolyl)-4-(2-isopropyl-1-imidazolyl)-6-dimethylamino-1,3,5-triazine] | – |
| 21 | > 100000 | c1cn(-c2nc(N3CCOCC3)nc(-n3ccnc3)n2)cn1 [Compound 23, 2,4-Bis(1-imidazolyl)-6-morpholino-1,3,5-triazine] | – |
